Results: US7709471B2, “Compounds” (AstraZeneca AB, priority 2006, dated 2010)

Experiments:
[1] = tested on: human colon tumour cell line HT29; test: Cellular Assay (phosphohistone H3 Ser10 mitotic marker, HT29); format: cell-based; settings: HT-29, 24 h, HT29 cells, read-out: IC50 (cellular assay, phosphohistone H3)
recombinant Plk1 = recombinant Plk1 (Homo sapiens, UniProt P53350); test: In Vitro Plk1 Enzyme Assay (SPA, GST-Cdc25C phosphorylation); format: biochemical; settings: ATP 64 nM, 90 minutes, read-out: IC50 (Plk1 enzyme inhibition)
recombinant Plk1, sequence (P53350 whole entry): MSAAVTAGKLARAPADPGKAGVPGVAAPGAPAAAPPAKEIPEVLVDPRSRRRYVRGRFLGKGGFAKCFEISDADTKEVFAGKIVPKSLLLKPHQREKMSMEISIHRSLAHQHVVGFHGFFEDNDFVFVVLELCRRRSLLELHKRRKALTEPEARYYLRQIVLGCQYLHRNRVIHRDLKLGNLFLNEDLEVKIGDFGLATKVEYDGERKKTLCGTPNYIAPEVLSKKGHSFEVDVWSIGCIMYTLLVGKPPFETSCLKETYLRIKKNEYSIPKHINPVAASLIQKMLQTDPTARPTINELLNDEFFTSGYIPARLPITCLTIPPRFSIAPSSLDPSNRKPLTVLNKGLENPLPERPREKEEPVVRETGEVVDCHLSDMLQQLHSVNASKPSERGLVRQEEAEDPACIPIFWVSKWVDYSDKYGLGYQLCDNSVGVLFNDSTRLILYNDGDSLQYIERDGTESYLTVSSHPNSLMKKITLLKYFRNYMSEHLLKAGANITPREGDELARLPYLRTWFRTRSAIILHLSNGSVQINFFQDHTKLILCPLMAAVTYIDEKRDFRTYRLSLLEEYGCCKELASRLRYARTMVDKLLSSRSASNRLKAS

IC50 [1] | IC50 (recombinant Plk1) | Compound
< 300 nM | < 1000 nM | COc1cc(C(=O)NC2CCC2)ccc1Nc1ncc2c(n1)N(C1CCCC1)CCC(=O)N2C [Example 98, N-cyclobutyl-4-[(6-cyclopentyl-2-methyl-3-oxo-2,6,8,10-tetrazabicyclo[5.4.0]undeca-8,10,12-trien-9-yl)amino]-3-methoxy-benzamide]
< 300 nM | < 300 nM | COc1cc(C(=O)NCCCN2CCCCC2)ccc1Nc1ncc2c(n1)N(C1CCCC1)CCC(=O)N2C [Example 69, 4-[(6-cyclopentyl-2-methyl-3-oxo-2,6,8,10-tetrazabicyclo[5.4.0]undeca-8,10,12-trien-9-yl)amino]-3-methoxy-N-[3-(1-piperidyl)propyl]benzamide]
< 300 nM | < 300 nM | COc1cc(C(=O)NC2CCN(CC3CC3)CC2)ccc1Nc1ncc2c(n1)N(C1CCCC1)CCC(=O)N2C [Example 319, 4-[(2-cyclopentyl-6-methyl-5-oxo-2,6,9,11-tetrazabicyclo[5.4.0]undeca-7,9,11-trien-10-yl)amino]-N-[1-(cyclopropylmethyl)-4-piperidyl]-3-methoxy-benzamide]
< 30000 nM | < 1000 nM | CN1C(=O)CCN(C2CCCC2)c2nc(Nc3ccc(C(=O)NC4CCCCC4)cc3)ncc21 [Example 89, N-cyclohexyl-4-[(6-cyclopentyl-2-methyl-3-oxo-2,6,8,10-tetrazabicyclo[5.4.0]undeca-8,10,12-trien-9-yl)amino]benzamide]
< 300 nM | < 300 nM | COc1cc(C(=O)NCC2CCCN(C)C2)ccc1Nc1ncc2c(n1)N(C1CCCC1)CCC(=O)N2C (centres unmarked) [Example 84, 4-[(6-cyclopentyl-2-methyl-3-oxo-2,6,8,10-tetrazabicyclo[5.4.0]undeca-8,10,12-trien-9-yl)amino]-3-methoxy-N-[(1-methyl-3-piperidyl)methyl]benzamide]
< 30000 nM | < 300 nM | CN1C(=O)CCN(C2CCCC2)c2nc(Nc3cccc(S(N)(=O)=O)c3)ncc21 [Example 170, 3-[(6-cyclopentyl-2-methyl-3-oxo-2,6,8,10-tetrazabicyclo[5.4.0]undeca-8,10,12-trien-9-yl)amino]benzenesulfonamide]
< 30000 nM | < 100000 nM | CN1CCC(NC(=O)c2ccc(Nc3ncc4c(n3)N(c3ccccc3)CCC(=O)N4)c(Cl)c2)CC1 [Example 248, 3-chloro-N-(1-methyl-4-piperidyl)-4-[(3-oxo-6-phenyl-2,6,8,10-tetrazabicyclo[5.4.0]undeca-8,10,12-trien-9-yl)amino]benzamide]
< 300 nM | < 300 nM | CCN(CC)CCCC(C)NC(=O)c1ccc(Nc2ncc3c(n2)N(C2CCCC2)CCC(=O)N3C)c(OC)c1 (centres unmarked) [Example 17, 4-[(6-cyclopentyl-2-methyl-3-oxo-2,6,8,10-tetrazabicyclo[5.4.0]undeca-8,10,12-trien-9-yl)amino]-N-(5-diethylaminopentan-2-yl)-3-methoxy-benzamide]
< 300 nM | < 300 nM | CN(C)CCCNC(=O)c1ccc(Nc2ncc3c(n2)N(C2CCCC2)CCC(=O)N3C)c(Cl)c1 [Example 317, 3-chloro-4-[(2-cyclopentyl-6-methyl-5-oxo-2,6,9,11-tetrazabicyclo[5.4.0]undeca-7,9,11-trien-10-yl)amino]-N-(3-dimethylaminopropyl)benzamide]
< 300 nM | < 1000 nM | COc1cc(C(=O)Nc2ccncc2)ccc1Nc1ncc2c(n1)N(C1CCCC1)CCC(=O)N2C [Example 67, 4-[(6-cyclopentyl-2-methyl-3-oxo-2,6,8,10-tetrazabicyclo[5.4.0]undeca-8,10,12-trien-9-yl)amino]-3-methoxy-N-pyridin-4-yl-benzamide]
< 300 nM | < 1000 nM | COc1cc(C(=O)NCCCN2CCCCCC2)ccc1Nc1ncc2c(n1)N(C1CCCC1)CCC(=O)N2C [Example 70, N-[3-(azepan-1-yl)propyl]-4-[(6-cyclopentyl-2-methyl-3-oxo-2,6,8,10-tetrazabicyclo[5.4.0]undeca-8,10,12-trien-9-yl)amino]-3-methoxy-benzamide]
< 30000 nM | < 300 nM | CC(C)N1CCC(=O)N(C)c2cnc(Nc3ccc(C(=O)NCCN4CCOCC4)cc3)nc21 [Example 218, 4-[(2-methyl-3-oxo-6-propan-2-yl-2,6,8,10-tetrazabicyclo[5.4.0]undeca-7,9,11-trien-9-yl)amino]-N-(2-morpholin-4-ylethyl)benzamide]
< 1000 nM | < 1000 nM | CN1C(=O)CCN(C2CCCC2)c2nc(Nc3ccc(C(=O)NCCN4CCOCC4)cc3)ncc21 [Example 191, 4-[(6-cyclopentyl-2-methyl-3-oxo-2,6,8,10-tetrazabicyclo[5.4.0]undeca-8,10,12-trien-9-yl)amino]-N-(2-morpholin-4-ylethyl)benzamide]
< 300 nM | < 300 nM | CCN(CC)CCCCNC(=O)c1ccc(Nc2ncc3c(n2)N(C2CCCC2)CCC(=O)N3C)c(OC)c1 [Example 30, 4-[(6-cyclopentyl-2-methyl-3-oxo-2,6,8,10-tetrazabicyclo[5.4.0]undeca-8,10,12-trien-9-yl)amino]-N-(4-diethylaminobutyl)-3-methoxy-benzamide]
< 30000 nM | < 1000 nM | COc1cc(C(=O)NC2CCN(C)CC2)ccc1Nc1ncc2c(n1)N(C1CCCC1=O)CCC(=O)N2C (centres unmarked) [Example 410, 3-methoxy-4-[[6-methyl-5-oxo-2-(2-oxocyclopentyl)-2,6,9,11-tetrazabicyclo[5.4.0]undeca-7,9,11-trien-10-yl]amino]-N-(1-methyl-4-piperidyl)benzamide]
< 300 nM | < 300 nM | COc1cc(C(=O)NCC2(CN3CCCC3)CC2)ccc1Nc1ncc2c(n1)N(C1CCCC1)CCC(=O)N2C [Example 83, 4-[(6-cyclopentyl-2-methyl-3-oxo-2,6,8,10-tetrazabicyclo[5.4.0]undeca-8,10,12-trien-9-yl)amino]-3-methoxy-N-[[1-(pyrrolidin-1-ylmethyl)cyclopropyl]methyl]benzamide]
< 1000 nM | < 300 nM | COc1cc(C(=O)N[C@H]2CCNC2)ccc1Nc1ncc2c(n1)N(C1CCCC1)CCC(=O)N2C [Example 56, 4-[(6-cyclopentyl-2-methyl-3-oxo-2,6,8,10-tetrazabicyclo[5.4.0]undeca-8,10,12-trien-9-yl)amino]-3-methoxy-N-[(3S)-pyrrolidin-3-yl]benzamide]
< 300 nM | < 300 nM | COc1cc(C(=O)NCCCN(C)C)ccc1Nc1ncc2c(n1)N(C1CCCCC1)CC1(CC1)C(=O)N2C [Example 431, 4-(9′-cyclohexyl-5′-methyl-6′-oxo-5′,6′,8′,9′-tetrahydrospiro[cyclopropane-1,7′-pyrimido[5,4-b][1,4]diazepine]-2′-ylamino)-N-(3-dimethylaminopropyl)-3-methoxy-benzamide]
< 1000 nM | < 1000 nM | CN1C(=O)CCN(C2CCCC2)c2nc(Nc3ccc(C(=O)NCCN4CCOCC4)cc3Cl)ncc21 [Example 184, 3-chloro-4-[(6-cyclopentyl-2-methyl-3-oxo-2,6,8,10-tetrazabicyclo[5.4.0]undeca-8,10,12-trien-9-yl)amino]-N-(2-morpholin-4-ylethyl)benzamide]
